In this assay the test system is human monocyte-derived M1 macrophages. Kind of assay: Lipid mediator (LM) formation in human monocyte-derived M1 macrophages, UPLC-MS-MS. The format is cell-based. Conditions: M1, single agents: extracts 50 μg/mL, AKBA 10 μM, AvailOm® 3 μg/mL, 180 min (FIG. 1). The protocol: Leukocyte concentrates from freshly withdrawn peripheral blood of healthy adult human donors were provided by the Institute of Transfusion Medicine, University Hospital Jena, Germany. The experimental protocol was approved by the ethical committee of the University Hospital Jena. All methods were performed in accordance with the relevant guidelines and regulations. Peripheral blood mononuclear cells (PBMC) were isolated using dextran sedimentation and Ficoll-Histopaque 1077-1 (Sigma-Aldrich, Taufkirchen, Germany) centrifugation. For differentiation and polarization towards M1 and M2, published criteria were used. […]
Macrophages (2×10^6/ml) were incubated in PBS containing 1 mM CaCl2). […] Supernatants were transferred to 2 ml of ice-cold methanol containing 10 μl of deuterium-labeled internal standards (200 nM […], d4-LTB4, d5-LXA4, d5-RvD2, d4-PGE2 and 10 μM d8-AA) to facilitate quantification. […] LM profiling was analyzed with an Acquity™ UPLC system (Waters, Milford, MA) and a QTRAP 5500 Mass Spectrometer (ABSciex, Darmstadt, Germany) equipped with a Turbo VTM Source and electrospray ionization (ESI). […] Quantification was achieved by calibration curves for each LM. […]

Turning to “3-O-acetyl-11-keto-beta-boswellic acid [AKBA]”, the “LM formation / LM biosynthesis” value is “did not significantly elevate”.

(Values after US12274728B2, “Preparation comprising omega-3 fatty acid salts and extracts of gum resins from Boswellia species” (Evonik Operations GmbH, priority 2019, dated 2025).)
